{
  "source": "patent US11149018B2",
  "about": "“Substituted N-arylethyl-2-aminoquinoline-4-carboxamides and use thereof” (Bayer Aktiengesellschaft, priority 2017, dated 2021)",
  "data": [
    {"target": "FP receptor (Homo sapiens (Human), UniProt P43088)", "sequence (P43088 whole entry)": "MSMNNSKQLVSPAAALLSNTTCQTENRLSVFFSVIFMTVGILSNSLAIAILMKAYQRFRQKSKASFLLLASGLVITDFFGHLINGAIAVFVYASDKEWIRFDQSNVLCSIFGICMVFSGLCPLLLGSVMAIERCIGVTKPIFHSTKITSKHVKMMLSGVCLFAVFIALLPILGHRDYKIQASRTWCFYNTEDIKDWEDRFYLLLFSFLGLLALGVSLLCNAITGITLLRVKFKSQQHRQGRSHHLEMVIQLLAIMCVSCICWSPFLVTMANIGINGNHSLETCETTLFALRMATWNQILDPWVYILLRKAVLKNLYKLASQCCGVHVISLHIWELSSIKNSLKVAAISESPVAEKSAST", "test": "In vitro test of inhibition of human FP receptor activity (PGF2α-induced calcium flux in FP-expressing CHEM1 cells)", "type": "cell-based", "conditions": "PGF2α 2 nM, some mean values of multiple determinations", "experimental": "B-1. In Vitro Test of Inhibition of Human FP Receptor Activity\nFor the characterization of test substances in respect of FP antagonism, PGF2α-induced calcium flux in FP-expressing CHEM1 cells (Millipore, HTS093C) was used.\n10 μl of the prediluted substance solution are added to the Fluo-8-laden cells and incubated at 37° C., 5% CO2 for 10 minutes. The FP receptor is activated by adding 40 μl of 2 nM (final concentration) PGF2α in calcium-free Tyrode, 2 mM CaCl2, 0.002% SmartBlock, and the calcium flux is determined by measuring the fluorescence at ex. 470 nm/[…].\nTable 1 below lists the IC50 values from this assay for individual working examples of the invention (some as mean values from multiple independent individual determinations): […]", "units": {"IC50": "nM"}, "values": [
      {"smiles": "Cc1c(N2CCCC(F)C2)nc2ccc(Br)cc2c1C(=O)NCC(CCC(=O)O)c1c(F)cccc1C(F)(F)F", "note": "(stereo not shown) [Example 169, 5-[({6-Bromo-2-[3-fluoropiperidin-1-yl]-3-methylquinolin-4-yl}carbonyl)amino]-4-[2-fluoro-6-(trifluoromethyl)phenyl]pentanoic acid]", "IC50": 9.1},
      {"smiles": "Cc1c(N2CCCC2)nc2ccc(Br)cc2c1C(=O)NCC(CCC(=O)O)c1c(F)ccc(F)c1Cl", "note": "(single isomer, unassigned; (+)) [Example 215, (+)-5-({[6-Bromo-3-methyl-2-(pyrrolidin-1-yl)quinolin-4-yl]carbonyl}amino)-4-(2-chloro-3,6-difluorophenyl)pentanoic acid]", "IC50": 3.9},
      {"smiles": "Cc1c(NCCC(F)(F)F)nc2ccc(Br)cc2c1C(=O)NCC(CCC(=O)O)c1ccccc1Cl", "note": "(racemic) [Example 98, (+/−)-5-[({6-Bromo-3-methyl-2-[(3,3,3-trifluoropropyl)amino]quinolin-4-yl}carbonyl)amino]-4-(2-chlorophenyl)pentanoic acid]", "IC50": 530},
      {"smiles": "Cc1c(N2CCCCC2)nc2ccc(Br)cc2c1C(=O)NCC(CCC(=O)O)c1c(F)cccc1C(F)(F)F", "note": "(single isomer, unassigned; (+)) [Example 162, (+)-5-({[6-Bromo-3-methyl-2-(piperidin-1-yl)quinolin-4-yl]carbonyl}amino)-4-[2-fluoro-6-(trifluoromethyl)phenyl]pentanoic acid]", "IC50": 42},
      {"smiles": "Cc1c(N2CCCCC2)nc2ccc(Br)cc2c1C(=O)NCC(CCC(=O)O)c1cccc(F)c1Cl", "note": "(racemic) [Example 141, (+/−)-5-({[6-Bromo-3-methyl-2-(piperidin-1-yl)quinolin-4-yl]carbonyl}amino)-4-(2-chloro-3-fluorophenyl)pentanoic acid]", "IC50": 5.8},
      {"smiles": "Cc1c(N2CCCC(C)(C)C2)nc2ccc(Br)cc2c1C(=O)NCC(CCC(=O)O)c1ccccc1Cl", "note": "(single isomer, unassigned; (+)) [Example 44, (+)-5-({[6-Bromo-2-(3,3-dimethylpiperidin-1-yl)-3-methylquinolin-4-yl]carbonyl}amino)-4-(2-chlorophenyl)pentanoic acid]", "IC50": 120},
      {"smiles": "Cc1c(N2CCCC2)nc2ccc(Br)cc2c1C(=O)NCC(CCC(=O)O)c1c(F)cccc1C(F)(F)F", "note": "(single isomer, unassigned; (-)) [Example 165, (−)-5-({[6-Bromo-3-methyl-2-(pyrrolidin-1-yl)quinolin-4-yl]carbonyl}amino)-4-[2-fluoro-6-(trifluoromethyl)phenyl]pentanoic acid]", "IC50": 2.9},
      {"smiles": "Cc1c(N2CCCO2)nc2ccc(Br)cc2c1C(=O)NCC(CCC(=O)O)c1cc(F)ccc1Cl", "note": "(racemic) [Example 14, (+/−)-5-({[6-Bromo-3-methyl-2-(1,2-oxazolidin-2-yl)quinolin-4-yl]carbonyl}amino)-4-(2-chloro-5-fluorophenyl)pentanoic acid]", "IC50": 70},
      {"smiles": "Cc1c(NCC2CC2)nc2ccc(Br)cc2c1C(=O)NCC(CCC(=O)O)c1ccccc1Cl", "note": "(racemic) [Example 100, (+/−)-5-[({6-Bromo-2-[(cyclopropylmethyl)amino]-3-methylquinolin-4-yl}carbonyl)amino]-4-(2-chlorophenyl)pentanoic acid]", "IC50": 340},
      {"smiles": "[2H]C1([2H])N(c2nc3ccc(Br)cc3c(C(=O)NCC(CCC(=O)O)c3ccccc3C(F)(F)F)c2C)C([2H])([2H])C([2H])([2H])C([2H])([2H])C1([2H])[2H]", "note": "(single isomer, unassigned; (-)) [Example 269, (−)-5-[({6-Bromo-3-methyl-2-[(^2H10)piperidin-1-yl]quinolin-4-yl}carbonyl)amino]-4-[2-(trifluoromethyl)phenyl]pentanoic acid]", "IC50": 2.8},
      {"smiles": "Cc1c(N2CCOCC2)nc2ccc(Br)cc2c1C(=O)NCC(CCC(=O)O)c1cc(F)ccc1Cl", "note": "(racemic) [Example 9, (+/−)-5-({[6-Bromo-3-methyl-2-(morpholin-4-yl)quinolin-4-yl]carbonyl}amino)-4-(2-chloro-5-fluorophenyl)pentanoic acid]", "IC50": 290},
      {"smiles": "CCC1CCCN(c2nc3ccc(Br)cc3c(C(=O)NCC(CCC(=O)O)c3ccccc3Cl)c2C)C1", "note": "(single isomer, unassigned; (-)) [Example 60, (−)-5-[({6-Bromo-2-[3-ethylpiperidin-1-yl]-3-methylquinolin-4-yl}carbonyl)amino]-4-(2-chlorophenyl)pentanoic acid]", "IC50": 7.5},
      {"smiles": "Cc1c(N2CCC[C@@H]2C)nc2ccc(Br)cc2c1C(=O)NCC(CCC(=O)O)c1ccccc1Cl", "note": "(single isomer, unassigned; (-)) [Example 81]", "IC50": 180},
      {"smiles": "Cc1c(N2CCCC(F)C2)nc2ccc(Br)cc2c1C(=O)NCC(CCC(=O)O)c1c(F)cccc1F", "note": "(stereo not shown) [Example 253, 5-[({6-Bromo-2-(3-fluoropiperidin-1-yl)-3-methylquinolin-4-yl}carbonyl)amino]-4-(2,6-difluorophenyl)pentanoic acid]", "IC50": 25},
      {"smiles": "Cc1c(N2CCCO2)nc2ccc(Br)cc2c1C(=O)NCC(CCC(=O)O)c1ccccc1Cl", "note": "(single isomer, unassigned; (-)) [Example 39, (−)-5-({[6-Bromo-3-methyl-2-(1,2-oxazolidin-2-yl)quinolin-4-yl]carbonyl}amino)-4-(2-chlorophenyl)pentanoic acid]", "IC50": 24},
      {"smiles": "Cc1c(N2CCOC(C)C2)nc2ccc(Br)cc2c1C(=O)NCC(CCC(=O)O)c1ccccc1Cl", "note": "(stereo not shown) [Example 89, 5-[({6-Bromo-3-methyl-2-[2-methylmorpholin-4-yl]quinolin-4-yl}carbonyl)amino]-4-(2-chlorophenyl)pentanoic acid]", "IC50": 350},
      {"smiles": "Cc1c(N2CCCCCC2)nc2ccc(Br)cc2c1C(=O)NCC(CCC(=O)O)c1c(F)ccc(F)c1Cl", "note": "(single isomer, unassigned; (+)) [Example 219, (+)-5-({[2-(Azepan-1-yl)-6-bromo-3-methylquinolin-4-yl]carbonyl}amino)-4-(2-chloro-3,6-difluorophenyl)pentanoic acid]", "IC50": 29},
      {"smiles": "Cc1c(N2CCCC2C)nc2ccc(Br)cc2c1C(=O)NCC(CCC(=O)O)c1ccccc1Cl", "note": "(stereo not shown) [Example 79, 5-[({6-Bromo-3-methyl-2-[2-methylpyrrolidin-1-yl]quinolin-4-yl}carbonyl)amino]-4-(2-chlorophenyl)pentanoic acid]", "IC50": 7.8},
      {"smiles": "Cc1c(N2CCCO2)nc2ccc(Br)cc2c1C(=O)NCC(CCC(=O)O)c1ccccc1Cl", "note": "(racemic) [Example 38, (+/−)-5-({[6-Bromo-3-methyl-2-(1,2-oxazolidin-2-yl)quinolin-4-yl]carbonyl}amino)-4-(2-chlorophenyl)pentanoic acid]", "IC50": 110},
      {"smiles": "Cc1c(N2CCCCC2)nc2ccc(Br)cc2c1C(=O)NCC(CCC(=O)O)c1cc(F)ccc1Cl", "note": "(single isomer, unassigned; (+)) [Example 7, (+)-5-({[6-Bromo-3-methyl-2-(piperidin-1-yl)quinolin-4-yl]carbonyl}amino)-4-(2-chloro-5-fluorophenyl)pentanoic acid]", "IC50": 6.6},
      {"smiles": "Cc1c(N2CCCC(F)(F)C2)nc2ccc(Br)cc2c1C(=O)NCC(CCC(=O)O)c1c(Cl)ccc(Cl)c1Cl", "note": "(single isomer, unassigned; (+)) [Example 178, (+)-5-({[6-Bromo-2-(3,3-difluoropiperidin-1-yl)-3-methylquinolin-4-yl]carbonyl}amino)-4-(2,3,6-trichlorophenyl)pentanoic acid]", "IC50": 56},
      {"smiles": "Cc1c(N2CCCC(C(N)=O)C2)nc2ccc(Br)cc2c1C(=O)NCC(CCC(=O)O)c1ccccc1Cl", "note": "(stereo not shown) [Example 85, 5-[({6-Bromo-2-[3-carbamoylpiperidin-1-yl]-3-methylquinolin-4-yl}carbonyl)amino]-4-(2-chlorophenyl)pentanoic acid]", "IC50": 590},
      {"smiles": "Cc1c(N2CCCC(F)(F)C2)nc2ccc(Br)cc2c1C(=O)NCC(CCC(=O)O)c1ccccc1Cl", "note": "(racemic) [Example 50, (+/−)-5-({[6-Bromo-2-(3,3-difluoropiperidin-1-yl)-3-methylquinolin-4-yl]carbonyl}amino)-4-(2-chlorophenyl)pentanoic acid]", "IC50": 3},
      {"smiles": "Cc1c(N2CC=CCC2)nc2ccc(Br)cc2c1C(=O)NCC(CCC(=O)O)c1cc(F)ccc1Cl", "note": "(racemic) [Example 10, (+/−)-5-({[6-Bromo-2-(3,6-dihydropyridin-1(2H)-yl)-3-methylquinolin-4-yl]carbonyl}amino)-4-(2-chloro-5-fluorophenyl)pentanoic acid]", "IC50": 36},
      {"smiles": "Cc1c(N2CCCC2)nc2ccc(Br)cc2c1C(=O)NCC(CCC(=O)O)c1cc(F)ccc1F", "note": "(single isomer, unassigned; (+)) [Example 259, (+)-5-({[6-Bromo-3-methyl-2-(pyrrolidin-1-yl)quinolin-4-yl]carbonyl}amino)-4-(2,5-difluorophenyl)pentanoic acid]", "IC50": 55},
      {"smiles": "Cc1c(N2CCCCCC2)nc2ccc(Br)cc2c1C(=O)NCC(CCC(=O)O)c1ccccc1OC(F)(F)F", "note": "(single isomer, unassigned; (+)) [Example 137, (+)-5-({[2-(Azepan-1-yl)-6-bromo-3-methylquinolin-4-yl]carbonyl}amino)-4-[2-(trifluoromethoxy)phenyl]pentanoic acid]", "IC50": 3.8},
      {"smiles": "Cc1c(NCCc2ccccc2)nc2ccc(Br)cc2c1C(=O)NCC(CC(=O)O)c1c(F)cccc1Cl", "note": "(racemic) [Example 4, (+/−)-4-[({6-Bromo-3-methyl-2-[(2-phenylethyl)amino]quinolin-4-yl}carbonyl)amino]-3-(2-chloro-6-fluorophenyl)butanoic acid]", "IC50": 170},
      {"smiles": "CCC1CCCN(c2nc3ccc(Br)cc3c(C(=O)NCC(CCC(=O)O)c3ccccc3OC(F)(F)F)c2C)C1", "note": "(stereo not shown) [Example 139, 5-[({6-Bromo-2-[3-ethylpiperidin-1-yl]-3-methylquinolin-4-yl}carbonyl)amino]-4-[2-(trifluoromethoxy)phenyl]pentanoic acid]", "IC50": 1.5}
    ]}
  ]
}
